Assay results reported in patent US20140213513A1 (Sanofi, priority 2012, published 2014).
*1 amine or outer side, *2 acyl side, *3 side chain or, on linkers, in order; H or OH if unused. Where a SMILES comes first, the peptide text is derived from it. Side-chain parts run from the residue outwards. [ ]: non-standard residue; d: D form. The star is where a group is joined. γGlu = O=C(O)[C@H](CCC(=O)[*:2])N[*:1]; Stearoyl = CCCCCCCCCCCCCCCCCC(=O)*; Palmitoyl = CCCCCCCCCCCCCCCC(=O)*; Aib = CC(C)(N)C(=O)O

How the values were obtained:
Type in all cases: cell-based
Settings in all cases: Table 7; cAMP formation
[1] = biological target: T1, human GLP-1 receptor (hGLP-1 R) (Homo sapiens, UniProt P43220); experiment: cAMP response of HEK-293 cells stably expressing human GLP-1 receptor (HTRF)
T1 construct: expressed in transfected cells
How it was run: (§1)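 Intracellular cAMP is quantified by HTRF following a 30-minute room-temperature incubation of cell suspensions (400000 cells/ml) with test compound in HBSS, 20 mM HEPES, 0.1% BSA and 2 mM IBMX.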

[2] = biological target: T2, human glucagon receptor (hGLUC R) (Homo sapiens, UniProt P47871); experiment: cAMP response of HEK-293 cells stably expressing human glucagon receptor (HTRF)
T2 construct: expressed in transfected cells
How it was run: as §1

[3] = biological target: T3, human GIP receptor (hGIP R) (Homo sapiens, UniProt P48546); experiment: cAMP response of HEK-293 cells stably expressing human GIP receptor (HTRF)
T3 construct: expressed in transfected cells
T3 sequence (P48546 22-466): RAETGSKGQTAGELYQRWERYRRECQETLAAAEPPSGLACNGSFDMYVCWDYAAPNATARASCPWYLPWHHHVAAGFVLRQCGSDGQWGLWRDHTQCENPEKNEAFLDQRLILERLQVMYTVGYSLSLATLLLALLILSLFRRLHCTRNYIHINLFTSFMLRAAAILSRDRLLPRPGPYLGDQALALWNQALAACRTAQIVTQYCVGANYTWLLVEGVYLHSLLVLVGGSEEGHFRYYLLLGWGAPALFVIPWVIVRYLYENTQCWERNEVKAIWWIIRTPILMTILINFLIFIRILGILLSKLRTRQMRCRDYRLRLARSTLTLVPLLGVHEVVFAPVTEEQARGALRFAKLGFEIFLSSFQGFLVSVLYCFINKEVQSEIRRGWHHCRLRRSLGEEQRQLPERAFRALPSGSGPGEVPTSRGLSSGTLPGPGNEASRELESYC
How it was run: as §1

T2 sequence (P47871 26-477): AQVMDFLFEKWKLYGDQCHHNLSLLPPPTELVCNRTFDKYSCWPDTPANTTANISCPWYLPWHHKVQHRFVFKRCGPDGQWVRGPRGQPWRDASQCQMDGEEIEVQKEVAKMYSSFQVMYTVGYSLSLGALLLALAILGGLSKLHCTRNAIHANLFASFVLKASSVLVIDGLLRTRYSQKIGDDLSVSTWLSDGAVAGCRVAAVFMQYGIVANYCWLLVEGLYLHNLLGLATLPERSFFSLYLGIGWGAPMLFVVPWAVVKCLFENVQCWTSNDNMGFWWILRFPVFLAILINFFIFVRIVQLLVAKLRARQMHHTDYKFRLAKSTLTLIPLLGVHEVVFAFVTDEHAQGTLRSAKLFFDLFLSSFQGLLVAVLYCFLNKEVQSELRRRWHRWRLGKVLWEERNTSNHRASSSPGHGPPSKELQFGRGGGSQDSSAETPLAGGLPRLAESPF
T1 sequence (P43220 24-463): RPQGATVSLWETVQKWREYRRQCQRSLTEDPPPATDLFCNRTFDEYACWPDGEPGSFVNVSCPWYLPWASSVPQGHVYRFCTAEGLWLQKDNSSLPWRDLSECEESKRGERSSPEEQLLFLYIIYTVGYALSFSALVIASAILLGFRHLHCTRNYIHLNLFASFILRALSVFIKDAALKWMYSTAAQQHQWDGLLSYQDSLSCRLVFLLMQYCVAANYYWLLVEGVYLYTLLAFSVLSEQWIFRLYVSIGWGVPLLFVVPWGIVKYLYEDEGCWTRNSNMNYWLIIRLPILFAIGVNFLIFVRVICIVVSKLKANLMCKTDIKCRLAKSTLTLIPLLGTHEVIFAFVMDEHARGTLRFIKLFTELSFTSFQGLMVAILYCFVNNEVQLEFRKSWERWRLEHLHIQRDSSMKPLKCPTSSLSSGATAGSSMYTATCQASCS

Compound | EC50 [1] | EC50 [2] | EC50 [3]
CCCCCCCCCCCCCCCC(=O)N[C@@H](CCC(=O)NCCCC[C@H](NC(=O)[C@H](CCC(N)=O)NC(=O)[C@@H](NC(=O)[C@H](CO)NC(=O)[C@H](CC(C)C)NC(=O)[C@H](CC(=O)O)NC(=O)[C@H](CO)NC(=O)[C@@H](NC(=O)[C@H](Cc1ccccc1)NC(=O)[C@@H](NC(=O)CNC(=O)[C@H](CCC(N)=O)NC(=O)C(C)(C)NC(=O)[C@@H](N)Cc1ccc(O)cc1)[C@@H](C)O)[C@@H](C)O)[C@@H](C)CC)C(=O)N[C@@H](CCC(=O)O)C(=O)N[C@@H](CCCCN)C(=O)N[C@@H](C)C(=O)N[C@@H](C)C(=O)N[C@@H](C)C(=O)NC(C)(C)C(=O)N[C@@H](CCC(=O)O)C(=O)N[C@@H](Cc1ccccc1)C(=O)N[C@H](C(=O)N[C@@H](CCC(=O)O)C(=O)N[C@@H](Cc1c[nH]c2ccccc12)C(=O)N[C@@H](CC(C)C)C(=O)N[C@@H](CCCCN)C(=O)N[C@@H](CC(N)=O)C(=O)N[C@H](C(=O)NCC(=O)N1CCC[C@H]1C(=O)N[C@@H](CO)C(=O)N[C@@H](CO)C(=O)NCC(=O)N[C@@H](C)C(=O)N1CCC[C@H]1C(=O)N1CCC[C@H]1C(=O)N1CCC[C@H]1C(=O)N[C@@H](CO)C(N)=O)[C@@H](C)O)[C@@H](C)CC)C(=O)O [SEQ ID NO: 12, Y-Aib-Q-G-T-F-T-S-D-L-S-I-Q-K(yE-x53)-E-K-A-A-A-Aib-EFIEWLKNTGPSSGAPPPSN H2] (H-Y[Aib]QGTFTSDLSIQK([γGlu-Palmitoyl])EKAAA[Aib]EFIEWLKNTGPSSGAPPPS-NH2) | 0.0055 nM | 0.139 nM | 0.008 nM
CCCCCCCCCCCCCCCC(=O)N[C@@H](CCC(=O)NCCCC[C@H](NC(=O)[C@H](CCC(N)=O)NC(=O)[C@@H](NC(=O)[C@H](CO)NC(=O)[C@H](CC(C)C)NC(=O)[C@H](CC(=O)O)NC(=O)[C@H](CO)NC(=O)[C@@H](NC(=O)[C@H](Cc1ccccc1)NC(=O)[C@@H](NC(=O)CNC(=O)[C@H](CCC(N)=O)NC(=O)C(C)(C)NC(=O)[C@@H](N)Cc1ccc(O)cc1)[C@@H](C)O)[C@@H](C)O)[C@@H](C)CC)C(=O)N[C@@H](CCC(=O)O)C(=O)N[C@@H](CCC(N)=O)C(=O)N[C@@H](CCCNC(=N)N)C(=O)N[C@@H](C)C(=O)N[C@@H](C)C(=O)NC(C)(C)C(=O)N[C@@H](CCC(=O)O)C(=O)N[C@@H](Cc1ccccc1)C(=O)N[C@H](C(=O)N[C@@H](CCC(=O)O)C(=O)N[C@@H](Cc1c[nH]c2ccccc12)C(=O)N[C@@H](CC(C)C)C(=O)N[C@@H](CCCCN)C(=O)N[C@@H](CC(N)=O)C(=O)N[C@H](C(=O)NCC(=O)N1CCC[C@H]1C(=O)N[C@@H](CO)C(=O)N[C@@H](CO)C(=O)NCC(=O)N[C@@H](C)C(=O)N1CCC[C@H]1C(=O)N1CCC[C@H]1C(=O)N1CCC[C@H]1C(=O)N[C@@H](CO)C(N)=O)[C@@H](C)O)[C@@H](C)CC)C(=O)O [SEQ ID NO: 15, Y-Aib-Q-G-T-F-T-S-D-L-S-I-Q-K(yE-x53)-E-Q- R-A-A-Aib-E-F-I-E-W-L-K-N-T-G-P-S-S-G-A-P-P-P-S-NH2] (H-Y[Aib]QGTFTSDLSIQK([γGlu-Palmitoyl])EQRAA[Aib]EFIEWLKNTGPSSGAPPPS-NH2) | 0.0069 nM | 0.054 nM | 0.0114 nM
CCCCCCCCCCCCCCCCCC(=O)N[C@@H](CCC(=O)NCCCC[C@H](NC(=O)[C@H](CCC(N)=O)NC(=O)[C@@H](NC(=O)[C@H](CO)NC(=O)[C@H](CC(C)C)NC(=O)[C@H](CC(=O)O)NC(=O)[C@H](CO)NC(=O)[C@@H](NC(=O)[C@H](Cc1ccccc1)NC(=O)[C@@H](NC(=O)CNC(=O)[C@H](CCC(=O)O)NC(=O)C(C)(C)NC(=O)[C@@H](N)Cc1ccc(O)cc1)[C@@H](C)O)[C@@H](C)O)[C@@H](C)CC)C(=O)N[C@@H](CCC(=O)O)C(=O)N[C@@H](CO)C(=O)N[C@@H](CCCCN)C(=O)N[C@@H](C)C(=O)N[C@@H](C)C(=O)N[C@@H](Cc1c[nH]cn1)C(=O)N[C@@H](CCC(=O)O)C(=O)N[C@@H](Cc1ccccc1)C(=O)N[C@H](C(=O)N[C@@H](CCC(=O)O)C(=O)N[C@@H](Cc1c[nH]c2ccccc12)C(=O)N[C@@H](CC(C)C)C(=O)N[C@@H](CCCCN)C(=O)N[C@@H](C)C(=O)NCC(=O)NCC(=O)N1CCC[C@H]1C(=O)N[C@@H](CO)C(=O)N[C@@H](CO)C(=O)NCC(=O)N[C@@H](C)C(=O)N1CCC[C@H]1C(=O)N1CCC[C@H]1C(=O)N1CCC[C@H]1C(=O)N[C@@H](CO)C(=O)N[C@@H](CCCCN)C(N)=O)[C@@H](C)CC)C(=O)O [SEQ ID NO: 58, Y-Aib-E-G-T-F-T-S-D-L-S-I-Q-K(yE-x70)-ESKAAHEFIEWLKAGGPSSGAPPPSK-NH2] (H-Y[Aib]EGTFTSDLSIQK([γGlu-Stearoyl])ESKAAHEFIEWLKAGGPSSGAPPPSK-NH2) | 0.0125 nM | 16 nM | 0.0086 nM
CCCCCCCCCCCCCCCC(=O)N[C@@H](CCC(=O)NCCCC[C@H](NC(=O)[C@H](CCC(N)=O)NC(=O)[C@@H](NC(=O)[C@H](CO)NC(=O)[C@H](CC(C)C)NC(=O)[C@H](CC(=O)O)NC(=O)[C@H](CO)NC(=O)[C@@H](NC(=O)[C@H](Cc1ccccc1)NC(=O)[C@@H](NC(=O)CNC(=O)[C@H](CCC(N)=O)NC(=O)C(C)(C)NC(=O)[C@@H](N)Cc1ccc(O)cc1)[C@@H](C)O)[C@@H](C)O)[C@@H](C)CC)C(=O)N[C@@H](CC(=O)O)C(=O)N[C@@H](CO)C(=O)N[C@H](C(=O)N[C@@H](C)C(=O)N[C@@H](C)C(=O)N[C@@H](CCC(N)=O)C(=O)N[C@@H](CC(=O)O)C(=O)N[C@@H](Cc1ccccc1)C(=O)N[C@H](C(=O)N[C@@H](CCC(=O)O)C(=O)N[C@@H](Cc1c[nH]c2ccccc12)C(=O)N[C@@H](CC(C)C)C(=O)N[C@@H](CCCCN)C(=O)N[C@@H](C)C(=O)NCC(=O)NCC(=O)N1CCC[C@H]1C(=O)N[C@@H](CO)C(=O)N[C@@H](CO)C(=O)NCC(=O)N[C@@H](C)C(=O)N1CCC[C@H]1C(=O)N1CCC[C@H]1C(=O)N1CCC[C@H]1C(=O)N[C@@H](CO)C(N)=O)[C@@H](C)CC)[C@@H](C)CC)C(=O)O [SEQ ID NO: 49, Y-Aib-Q-G-T-F-T-S-D-L-S-I-Q-K(yE-x53)-DSIAAQDFIEWLKAGGPSSGAPPPS-NH2] (H-Y[Aib]QGTFTSDLSIQK([γGlu-Palmitoyl])DSIAAQDFIEWLKAGGPSSGAPPPS-NH2) | 0.0172 nM | 0.195 nM | 0.0456 nM
CCCCCCCCCCCCCCCC(=O)N[C@@H](CCC(=O)NCCCC[C@H](NC(=O)[C@H](CCC(N)=O)NC(=O)[C@@H](NC(=O)[C@H](CO)NC(=O)[C@H](CC(C)C)NC(=O)[C@H](CC(=O)O)NC(=O)[C@H](CO)NC(=O)[C@@H](NC(=O)[C@H](Cc1ccccc1)NC(=O)[C@@H](NC(=O)CNC(=O)[C@H](CCC(N)=O)NC(=O)C(C)(C)NC(=O)[C@@H](N)Cc1ccc(O)cc1)[C@@H](C)O)[C@@H](C)O)[C@@H](C)CC)C(=O)N[C@@H](CCC(=O)O)C(=O)N[C@@H](CCCCN)C(=O)N[C@@H](CCCNC(=N)N)C(=O)N[C@@H](C)C(=O)N[C@@H](C)C(=O)NC(C)(C)C(=O)N[C@@H](Cc1ccc(O)cc1)C(=O)N[C@@H](Cc1ccccc1)C(=O)N[C@H](C(=O)N[C@@H](CCC(=O)O)C(=O)N[C@@H](Cc1c[nH]c2ccccc12)C(=O)N[C@@H](CC(C)C)C(=O)N[C@@H](CCCCN)C(=O)N[C@@H](CC(N)=O)C(=O)N[C@H](C(=O)NCC(=O)N1CCC[C@H]1C(=O)N[C@@H](CO)C(=O)N[C@@H](CO)C(=O)NCC(=O)N[C@@H](C)C(=O)N1CCC[C@H]1C(=O)N1CCC[C@H]1C(=O)N1CCC[C@H]1C(=O)N[C@@H](CO)C(N)=O)[C@@H](C)O)[C@@H](C)CC)C(=O)O [SEQ ID NO: 23, Y-Aib-Q-G-T-F-T-S-D-L-S-I-Q-K(yE-x53)-E-K-R-A-A-Aib-Y-F-I-E-W-L-K-N-T-G-P-S-S-G-A-P-P-P-S-NH2] (H-Y[Aib]QGTFTSDLSIQK([γGlu-Palmitoyl])EKRAA[Aib]YFIEWLKNTGPSSGAPPPS-NH2) | 0.0092 nM | 0.312 nM | 0.135 nM
CCCCCCCCCCCCCCCC(=O)N[C@@H](CCC(=O)NCCCC[C@H](NC(=O)[C@H](CCC(N)=O)NC(=O)[C@@H](NC(=O)[C@H](CO)NC(=O)[C@H](CC(C)C)NC(=O)[C@H](CC(=O)O)NC(=O)[C@H](CO)NC(=O)[C@@H](NC(=O)[C@H](Cc1ccccc1)NC(=O)[C@@H](NC(=O)CNC(=O)[C@H](CCC(N)=O)NC(=O)C(C)(C)NC(=O)[C@@H](N)Cc1ccc(O)cc1)[C@@H](C)O)[C@@H](C)O)[C@@H](C)CC)C(=O)N[C@@H](CC(=O)O)C(=O)N[C@@H](CO)C(=O)N[C@@H](CCCNC(=N)N)C(=O)N[C@@H](C)C(=O)N[C@H](C(=O)N[C@@H](CCC(N)=O)C(=O)N[C@@H](CC(=O)O)C(=O)N[C@@H](Cc1ccccc1)C(=O)N[C@H](C(=O)N[C@@H](CCC(=O)O)C(=O)N[C@@H](Cc1c[nH]c2ccccc12)C(=O)N[C@@H](CC(C)C)C(=O)N[C@@H](CCCCN)C(=O)N[C@@H](C)C(=O)NCC(=O)NCC(=O)N1CCC[C@H]1C(=O)N[C@@H](CO)C(=O)N[C@@H](CO)C(=O)NCC(=O)N[C@@H](C)C(=O)N1CCC[C@H]1C(=O)N1CCC[C@H]1C(=O)N1CCC[C@H]1C(=O)N[C@@H](CO)C(N)=O)[C@@H](C)CC)C(C)C)C(=O)O [SEQ ID NO: 50, Y-Aib-Q-G-T-F-T-S-D-L-S-I-Q-K(yE-x53)-DSRAVQDFIEWLKAGGPSSGAPPPS-NH2] (H-Y[Aib]QGTFTSDLSIQK([γGlu-Palmitoyl])DSRAVQDFIEWLKAGGPSSGAPPPS-NH2) | 0.01 nM | 1.72 nM | 0.0479 nM
